Tested on: passive cutaneous anaphylaxis
Assay: Inhibition of passive cutaneous anaphylaxis (PCA test)
Assay type: in vivo, rats (Wistar)
Conditions: Rattus norvegicus, po; rats, p.o., 10 minutes before ovoalbumin challenge i.p.
Protocol: For example, the substances have an inhibiting action on the release of endogenic mediators from mast cells or basophilic leucocytes which leads to allergic reactions. The doses to be used vary, of course, depending on the nature of the substance used, on the mode of administration and on the condition to be treated. In general, however, satisfactory results are achieved in animal experiments with doses of from 0.05 to 75 mg. per kg of body weight.
Description of the test method to determine the inhibition of passive cutaneous anaphylaxis (PCA test, see Arch.int. pharmacology 252 (1981) 316-326).
To prepare the IgE-antiovoalbumin serum, used in the test, by the method of Mota (Immunology 7, (1964) 681) and J. Goose (Immunology 16 (1969) 749), male Wistar rats of 200-250 g. body weight were sensitised by subcutaneous injection of 1 mg. of ovoalbumin and 1 ml. of Bordatella pertussis suspension ("Vaxicoq" Merieux 3.10^10 organisms/ml.). After 14 days, the animals are exsanguinated and the blood is centrifuged. The antiserum thus obtained is stored at […].
Non-sensitised rats are injected, in each case, with 0.1 ml. of antiserum into the skin at four different places on their shaven backs. After 72 hours, a solution of the test compound or, for comparison, only the solvent, is administered orally, and 10 minutes later, 5 mg. of ovoalbumin and 5 mg. of blue dyestuff (Evans blue) in 0.9% strength NaCl solution are administered intraperitoneally. After 30 minutes, the animals are sacrificed and the diameters of the blue spots formed at the sites injected with antiserum are measured. The inhibiting effect of the test substance is determined from the size of the blue spots which appear.
The example numbers given for the compounds of the formula I relate to the preparation Examples below.

SMILES: O=c1cc(-c2ccccc2)n(-c2ccccc2)n1CCCN1CCN(c2ccccn2)CC1 [Example 1, 1,5-Diphenyl-2-{3-[4-(2-pyridyl)-piperazin-1-yl]-propyl}-pyrazolin-3-one]
- ED50: 0.8 mg/kg

SMILES: O=c1cc(-c2ccc(Cl)cc2)n(-c2ccccc2)n1CCCN1CCN(c2ccccn2)CC1 [Example 13]
- ED50: 8.5 mg/kg

SMILES: O=c1cc(-c2ccccc2)n(-c2ccccc2)n1CCCN1CCN(c2ccc(F)cc2)CC1 [Example 22]
- ED50: 9.8 mg/kg

SMILES: Cc1ccnc(N2CCN(CCCn3c(=O)cc(-c4ccccc4)n3-c3ccccc3)CC2)c1 [Example 27]
- ED50: 8.2 mg/kg

From US4442102A, “1,5-Diphenylpyrazolin-3-one compounds, process and intermediates for preparation thereof and pharmaceutical compositions containing same” (Kali-Chemie Pharma GmbH, priority 1981, dated 1984)
